Assay results taken from patent US20080234230A1, “Pharmaceutical Composition for Regulation of Pancreatic Juice Secretion Comprising a LPA Receptor Modulator” (ONO PHARMACEUTICAL CO., LTD., priority 2001, published 2008).
Where no end group is shown, it is not given here. The star is where a group is joined. SO3H = O=S(=O)(O)*

Assays:
[1] = system: pancreatic juice secretion; assay: Effect of LPA receptor or EDG-2 antagonist on pancreatic juice secretion in rats (Example 7); assay type: in vivo, rat
Description: Using Compound 1 having the effect as a EDG-2 antagonist was confirmed in Example 5, the effect of LPA on the pancreatic juice secretion was examined.
In rats, (1) 18:3-LPA and (2) saline as a control (vehicle) for 18:3-LPA were respectively infused through the femoral vein, and (3) Compound 1 and (4) 5% bovine serum albumin/10% DMSO/saline as a control (vehicle) for Compound 1 were respectively infused through the cervical vein, at a rate of 0.5 ml/h for 1 hour.
On the other hand, saline was previously infused through the femoral vein and cervical vein (0.5 ml/h), and after one hour the pancreatic juice was collected in order to ascertain that there was no difference in the initial volumes of the secreted pancreatic juice in rats in each group.

[2] = system: pancreatic juice secretion; assay: Effect of LPA receptor or EDG-2 agonist on pancreatic juice secretion in rats (Example 6); assay type: in vivo; settings: rat, intravenous infusion through the cervical vein
Description: Using an LPA receptor or EDG-2 agonist, the effect of LPA on the pancreatic juice secretion was examined. An LPA receptor agonist 18:3-LPA was intravenously infused to a rat through the cervical vein, and the amount of pancreatic juice secreted was measured. In a group to which 18:3-LPA was administered, the pancreatic juice secretion was inhibited in rats.

[3] = system: pancreatic juice secretion; assay: Determination of the amount of pancreatic juice secreted in rats (Example 1); assay type: in vivo, rat
Description: Male rats (8 to 9 week-old) fasting from the morning of the previous day were anesthetized by subcutaneous application of urethane (1.2 g/5 ml/kg) and polyethylene tubes were inserted into the arteria carotis communis and the femoral vein. The abdomen was cut open along the median line and the gastric pylorus was ligated. Then, a polyethylene tube was inserted into the bile duct at the hepatic portal portion, through which the tip of the tube was inserted into the pore opened in the duodenum intestine in order to return bile to the duodenum intestine. The origin of the hepatoapancreatic tube from the duodenum intestine was cut open, into which a tube was inserted in the same way as in the bile duct and led outside the body. Pure pancreatic juice was collected from the tube.
The drug was continuously administered through the femoral vein with saline. On the other hand, a saline containing 18:3-LPA, 18:3-LPC or 0.5% bovine serum albumin (Sigma, A-0281) as control (vehicle) was infused (1 ml/h) through the cervical vein, and pancreatic juice was collected for 1 hour.
The volume of the collected pancreatic juice was measured. In this connection, saline was infused through the cervical vein and the femoral vein 1 hour before administration of the drug, during which time the amount of pancreatic juice secreted was measured in order to ascertain that there was no considerable difference between individual animals in the pre-value to the pancreatic juice secretion in the individual animals.

lipase secretion = assay: Determination of the amount of lipase secreted (Example 3); assay type: in vivo, rat; settings: rats
Description: The pancreatic juice collected in Example 1 was diluted with saline at an appropriate dilution rate and the lipase activity was measured with a reagent contained in Liquitech Lipase Color kit (Roche Diagnostics). Then, 100 μl of a kit R-1 solution was added to 10 μl of a lipase standard solution (Worthington Biochemical; prepared to 1 U/L to 1,000 U/L with saline) or the collected diluted pancreatic juice, and the mixture was incubated at 37° C. for 5 minutes. Then, 60 μl of a kit R-2 solution was added and the variation (Vmax) of optical density (OD) at 570-700 nm was monitored at 37° C. for 3 minutes (SPECTRAMAX 250). The lipase activity of the pancreatic juice was calculated from a lipase standard curve to evaluate the effect of the subject substance by means of the secreted amount of the enzyme (U/h) obtained by the enzyme activity (concentration)(U/L) multiplied by the amount of pancreatic juice collected (L/h).

amylase secretion = assay: Determination of the amount of amylase secreted (Example 2); assay type: in vivo, rat
Description: The pancreatic juice collected in Example 1 was diluted with Dulbecco's phosphate-buffered saline(−) (PBS(−)) at an appropriate dilution rate, of which the amylase activity was determined with a reagent of a Diacolor AMY Neorate (Ono Pharmaceutical) kit. To 10 μl of an amylase standard solution (Worthington Biochemical, diluted to 100 U/L to 6,400 U/L with PBS(−)) or the collected diluted pancreatic juice was added 50 μl of an enzyme reagent of the kit, and the mixture was incubated at 37° C. for 3 minutes. Then, after addition of 50 μl of a substrate reagent of the kit, the variation (Vmax) of optical density (OD) at 400 nm was monitored at 37° C. for 3 minutes (SPECTRAMAX 250). The amylase activity was calculated from an amylase standard curve to evaluate the effect of the subject substance by means of the secreted amount of the enzyme (U/h) obtained by the enzyme activity (concentration) (U/L) multiplied by the amount of pancreatic juice collected (L/h).

[4] = system: cholecystokinin-induced pancreatic juice secretion; assay: Pancreatic juice secreted in rats by stimulation with cholecystokinin (CCK-8) (Example 4); assay type: in vivo, rat; settings: CCK-8 0.12 μg/kg/h
Description: The pancreatic juice secreted in rats was collected in the same manner as described in Example 1. In order to ascertain the effect of LPA on excessive pancreatic juice secretion by CCK, an experiment was conducted according to a protocol as shown in Table 2. As CCK, CCK-8 (Sigma No. C-2175) was used.
Saline was infused through the cervical vein and the femoral vein 1 hour before administration of the drug, during which time the amount of pancreatic juice secreted was measured in order to ascertain that there was no considerable difference between individual animals in the pre-value to the pancreatic juice secretion in the individual animals. After 1 hour infusion of saline, to the 18:3-LPA group and the 18:3-LPC group, were infused 3 mg/kg/h of 18:3-LPA and 10 mg/kg/h of 18:3-LPC, respectively, through the femoral vein. After lapse of 1 hour, CCK-8 was intravenously infused for stimulation through the cervical vein in order to examine the effect of LPA on the excessive pancreatic juice secretion. To the control group (vehicle) with no stimuli by CCK-8, 0.5% BSA in saline was administered through the cervical vein. On the other hand, saline was infused to the LPA control group (vehicle) through the femoral vein. In other groups, CCK-8 was administered through the cervical vein at a rate of 0.12 μg/kg/h and 1 ml/h. In the 18:3-LPA group and the 18:3-LPC group, 3 mg/kg/h of 18:3-LPA and 10 mg/kg/h of 18:3-LPC, respectively, were infused through the femoral vein. In the control group with no stimuli by CCK-8 and in the 18:3-LPA control group (vehicle), saline was administered through the femoral vein. One hour after the final administration (Admn.2), the volume of pancreatic juice collected was measured.

[5] = 10 mg/kg/h, 1 ml/h, i.v. infusion

Molecule: COC(=O)CCSCc1ccc(-c2onc(C)c2NC(=O)OC(C)c2ccccc2Cl)cc1 (stereo not drawn) [Compound 1, methyl 3-({4-[4-({[1-(2-chlorophenyl)ethoxy]carbonyl}amino)-3-methyl-5-isoxazolyl]benzyl}sulfanyl)propanoate]
- recovery of pancreatic juice secretion from the inhibition by 18:3-LPA ([1]; Compound 1 administered together with 18:3-LPA (3 mg/kg/h), FIG. 5): significantly recovered
- basal (at resting) secretion volume of pancreatic juice vs control group (vehicle) ([1]; Compound 1 alone, 10 mg/kg/h i.v. infusion, after one hour, FIG. 5): no difference

Molecule: CC/C=C\C/C=C\C/C=C\CCCCCCCC(=O)OCC(O)COP(=O)(O)O (stereo not drawn) [18:3-LPA, 1-linolenoyl-lyzophosphatidic acid]
- pancreatic juice secretion [2]: inhibited
- dose at which the effect on pancreatic juice secretion reached approximately the maximum ([3]; i.v. infusion 1 ml/h): ~3 mg/kg/h
- pancreatic juice secretion ([3]; i.v. infusion 1 ml/h for 1 hr, 18:3-LPA 1, 3, 10 mg/kg/h, FIG. 1): decreased
- pancreatic juice secretion ([3]; i.v. infusion 1 ml/h for 1 hr, 18:3-LPA 1, 3, 10 mg/kg/h, FIG. 1, listed as LPA): Dose-dependent inhibitory effect
- basal secretion volume of pancreatic juice ([1]; 18:3-LPA 3 mg/kg/h i.v. infusion): inhibition of the basal secretion volume was observed
- amount of lipase secreted (lipase secretion; 3 and 10 mg/kg/h i.v. infusion, FIG. 3): reduced significantly
- amount of amylase secreted (amylase secretion; rats, 1, 3 or 10 mg/kg/h i.v. infusion, FIG. 2): reduced
- pancreatic juice secretion increased by CCK-8 ([4]; 3 mg/kg/h intravenous infusion, FIG. 4): reduced the increased pancreatic juice secretion approximately to the control level

Molecule: CCK-8: cholecystokinin, CCK-8 (Sigma No. C-2175), used to stimulate pancreatic juice secretion (DY(SO3H)MGWMDF-NH2; UniProt P06307 96-103, looked up)
- secretion of pancreatic juice (stimulation) ([4]; 1 ml/h through the cervical vein): markedly increased

Molecule: CC/C=C\C/C=C\C/C=C\CCCCCCCC(=O)OCC(O)COP(=O)([O-])OCC[N+](C)(C)C (stereo not drawn) [18:3-LPC, 1-linolenoyl lisophosphatidylcholine, reference compound]
- pancreatic juice secretion [3, 5]: no inhibitory effect
- lipase secretion (lipase secretion; [5]): no inhibitory effect
- amylase secretion (amylase secretion; rats, 10 mg/kg/h, 1 ml/h, i.v. infusion): no inhibitory effect
- pancreatic juice secretion induced by CCK-8 ([4]; 10 mg/kg/h, 1 ml/h, intravenous infusion): no inhibitory effect
